Measurements taken from US9149513B2, “Method and pharmacological composition for the diagnosis and treatment of male sub-fertility” (PERINESS LTD., priority 2006, dated 2015).

System: intracellular sperm cell DNase
Test: Inhibition of intracellular sperm cell DNase by citrate
Format: cell-based
Details: 10 mM citrate, up to 8 hours, activity measured every hour
Description: Sperm cells were subjected to three cycles of freezing and thawing and were then centrifuged for 10 min (27,000 g, 4° C.). […] 0.3 ml of the supernatant was added to 0.6 ml of DNase activity buffer and the mixture was measured in a spectrophotometer at 260 nm against a reference that contained only buffer and medium. Calibration curves were made using a commercial bovine DNase I. Sperm cell internal DNase was measured in Kunitz units. One Kunitz unit is defined as the amount of DNase that produces an increase of 1 O.D. per minute at 260 nm in a 1 cm pathlength at pH 5 at 25° C., in a reaction buffer that contains 5 mM MgSO4x7H2O, 0.1 M NaAcetate pH 5 and 4 mg % Calf thymus DNA. Plasma DNase was measured in Bartoov units. One Bartoov unit (BU) is defined as the amount of enzyme that produces a ΔA260 of 0.001 per min in 1 cm pathlength at pH 7.5 at 25° C., in a reaction buffer that contains 0.1M Tris, 10 mM CaCl2, 10 mM MnCl2 and 0.05 mg/ml calf thymus DNA.
In order to examine whether the DNase inhibitor citrate can inhibit intracellular sperm cell DNase, sperm cells were incubated with or without 10 mM citrate for up to 8 hours. The intracellular DNase activity was measured every hour and the sum of the DNase activity was calculated.

O=C(O)CC(O)(CC(=O)O)C(=O)O [citrate]
sum of intracellular DNase activity, % of control sperm cells: 43%
